The text below walks through data of patent publication US7186413B2, “Hydrogels and water soluble polymeric carriers for drug delivery” (The Regents of the University of Michigan, priority 1998, dated 2007).

Data set [1] in a line: release of ionically bound or physically entrapped drugs and dyes from hydrogels. The data set is classed as physicochemical.
Protocol: Samples containing 9.8, 19.5, and 39.1 mg brilliant blue per gram of PAG either with or without calcium (which enhances gelling) were studied over a period of several weeks.
Data set [2] concerns KB cells. The data set is described as follows: standard cytotoxicity assay with KB cells. The protocol: The activity of covalently bound daunomycin released from 6 wt % PAG gels was tested using KB cells in a standard cytotoxicity assay. Gels containing either zero, 13.3 or 30 mg of drug per gram of PAG were incubated in sterile media at 37° C. which was tested and replaced weekly.
The biocompatibility of PAG has been tested in vitro.
Sodium periodate, adipic dihydrazide, ethylene glycol, and calcium chloride were purchased from Aldrich Chemical Company (Milwaukee, Wis.) and were used as received. Daunomycin hydrochloride was purchased from Fluka Chemical Corporation (Ronkonkoma, N.Y.). Dulbecco's Modified Eagle's Medium (DMEM) was purchased from Life Technologies (Grand Island, N.Y.). […] The elution of the drug was monitored at 480 nm. • Synthesis of the poly(aldehyde guluronate), PAG. […] The product was analyzed by ^1H-NMR, FTIR, and the aldehyde content was quantified using trinitrobenzene sulfonic acid. • Preparation of cross-linked PAG hydrogels. […] To quantify the amount of daunomycin that is incorporated in the gels, two sets of hydrogels were formed as described above. […] The solutions were then sonicated for 30 minutes, quantitatively transferred to 5 ml volumetric flasks, and diluted with double distilled water. […]

A short description of data set [3]: in vitro release of daunomycin from cross-linked PAG hydrogels. In kind it is physicochemical.
A short description of data set [4]: determination of the drug incorporated (retained) in PAG hydrogel. The data set is classed as physicochemical. The settings on record: lyophilized, crushed PAG hydrogel extracted with water. The protocol:
The reaction described in Example 2 was utilized to incorporate daunomycin into hydrogels for localized drug delivery. HPLC was used to determine the amount of daunomycin that reacted with adipic dihydrazide before the addition of PAG. Mixtures of daunomycin and adipic dihydrazide were analyzed and found to contain 88.5% of the daunomycin-adipic dihydrazide conjugate and 11.5% of free drug (FIG. 21). The amount of daunomycin that was covalently incorporated into the hydrogel was next determined by quantifying the amount of free drug in the hydrogel. Hydrogels containing daunomycin or trypan blue were synthesized, frozen, lyophilized, and crushed to form powders. The free drug was then dissolved in water and the resulting mixture was filtered to remove any fine particles. The concentration of the free drug was then determined spectrophotometrically. […] Only two percent of the trypan blue was retained in the hydrogel. In comparison, 86.9±0.1% of daunomycin remained in the gelatinous particles. Moreover, hydrogels containing trypan blue that were incubated in DMEM released the entire drug within 24 hours. These findings clearly indicate that daunomycin is covalently coupled to the hydrogel through the adipic dihydrazide molecule. The daunomycin incorporation in the hydrogels correlates well with the percentage of daunomycin-adipic dihydrazide conjugate that was determined by HPLC analysis. […]

On to `CN(Cc1cnc2nc(N)nc(N)c2n1)c1ccc(C(=O)N[C@@H](CCC(=O)O)C(=O)O)cc1` [Methotrexate], for which the “time to quantitative release from the hydrogels” value in data set [1] (physically entrapped, diffusion, all conditions) was no more than 5 days.
Turning to `O=C1c2c(O)ccc(O)c2C(=O)c2c(NCCNCCO)ccc(NCCNCCO)c21` [Mitoxantrone], in data set [2] (mixed with AAD), the “cytotoxicity of drug alone versus mixed with AAD (prodrug formation, FIG. 9)” value is “not found to form a prodrug”.
As usually defined, the IC50 is the point on the concentration scale where inhibition reaches its midpoint. Regarding `COc1cccc2c1C(=O)c1c(O)c3c(c(O)c1C2=O)C[C@@](O)(C(C)=O)C[C@@H]3O[C@H]1C[C@H](N)[C@H](O)[C@H](C)O1` [daunomycin], the “drug released during the first six weeks” value in data set [3] (6% w/w PAG, 150 mM AAD, 40 mM calcium) turned out to be 40%. Besides, the “release rate of drug from hydrogel” value in data set [3] (6% w/w PAG, 150 mM AAD, 40 mM calcium, first six weeks) is given as 0.8 % drug per day; in data set [3] (6% w/w PAG, 150 mM adipic dihydrazide, acidic medium), 1.8 % per day; in data set [3] (6% w/w PAG, 150 mM adipic dihydrazide, neutral condition) it was 1 % per day; in data set [3] (6 wt % PAG, 8 mM daunomycin, 150 mM AAD, first ten days, DMEM 37° C.), 1 % drug per day; in data set [3] (6 wt % PAG, 8 mM daunomycin, 150 mM AAD, following twenty-two days) it was “approximately 4 % per day”. Besides, in data set [3] (6% w/w PAG, 150 mM AAD, absence of calcium), the “time to release of all incorporated drug” value is on record as “four”. In addition, the “time to release of total incorporated drug” value in data set [3] (6 wt % PAG, 8 mM daunomycin, 150 mM AAD) is “thirty”. The “time to release of total drug loaded” value in data set [3] (6 wt % PAG, 50 mM AAD cross-linker) is given as “two”; in data set [3] (6 wt % PAG, 100 mM AAD) it was “two”; in data set [3] (6 wt % PAG, elevated AAD concentrations) it was “more than six”. In addition, the “fraction retained in the hydrogel particles” value in data set [4] was 86.9±0.1%. The IC50 in data set [2] (Homo sapiens, KB, 48 h) was 202 ± 48 nM.
As for `Cc1cc(-c2ccc(/N=N/c3c(S(=O)(=O)O)cc4cc(S(=O)(=O)O)cc(N)c4c3O)c(C)c2)ccc1/N=N/c1c(S(=O)(=O)O)cc2cc(S(=O)(=O)O)cc(N)c2c1O` [trypan blue], the “time to release of the entire drug from hydrogel” value in data set [1] (PAG hydrogels incubated in DMEM) was no more than 24 h. Besides, the “fraction retained in the hydrogel particles” value in data set [4] was “two”.
